Data published in PubChem BioAssay (NCI).
“And” between values parts separate entries of the source, which are not always exact repeats. Identical values can stand only once.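 The compound was tested at five concentrations on cells cultured in 96-well plates, with a 48-hour exposure period. Abbreviation: GI50, concentration required for 50% inhibition of growth. TGI: concentration producing complete growth inhibition.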

Tests used:
Assay in all cases: inhibition of tumour cell growth, NCI panel, 48 h
A498 renal = system: A498 renal
COLO 205 colon = system: COLO 205 colon
HCT-15 colon = system: HCT-15 colon
HT29 colon = system: HT29 colon
IGROV1 ovarian = system: IGROV1 ovarian
MALME-3M melanoma = system: MALME-3M melanoma
NCI-H522 lung = system: NCI-H522 lung
SN12C renal = system: SN12C renal
TK-10 renal = system: TK-10 renal
NCI-H460 lung = system: NCI-H460 lung

Structure (SMILES) | TGI (A498 renal) [µM] | TGI (COLO 205 colon) [µM] | TGI (HCT-15 colon) [µM] | TGI (HT29 colon) [µM] | TGI (IGROV1 ovarian) [µM] | TGI (MALME-3M melanoma) | TGI (NCI-H522 lung) [µM] | TGI (SN12C renal) [µM] | TGI (TK-10 renal) [µM] | TGI (NCI-H460 lung) [µM] | GI50 (MALME-3M melanoma) | GI50 (NCI-H460 lung)
CN(C(=O)Cc1cc(Cl)c(Cl)cc1NC(=O)CCCN)[C@H]1CCCC[C@@H]1N1CCCC1 | 32.4 | 35 | > 100 | 47.7 | > 100 | 31.1 µM | 29.8 | > 100 | > 100 | – | – | –
NC(=O)N/N=C(\Cc1cc(=O)oc2cc(O)ccc12)C(=O)Nc1ccccc1C(N)=O | – | > 100 | > 100 | > 100 | > 100 | – | > 100 | > 100 | > 100 | > 100 | – | –
O=C1C(NS(=O)(=O)c2ccccc2)=C(n2ccnc2)C(=O)c2ccccc21 | – | > 100 | > 100 | > 100 | > 100 | > 100 µM | > 100 | > 100 | > 100 | > 100 | – | –
OC1C2CN3CCN(C2)CC1(c1ccccc1)C3 (stereo not given) | > 100 | > 100 | – | > 100 | > 100 | > 100 µM | > 100 | > 100 | > 100 | – | – | –
CN(C)N1C(=C(C#N)C#N)C(c2ccccc2)CC1C#N (stereo not given) | > 100 | > 100 | > 100 | > 100 | > 100 | > 100 µM | > 100 | > 100 | > 100 | – | – | –
CC1OC1C(=O)P(=O)(O)O (stereo not given) | > 100 | > 100 | > 100 | – | > 100 | – | > 100 | > 100 | > 100 | > 100 | – | –
NCC(=O)N[C@H]1c2ccsc2/C(=N/O)[C@H]1O | > 100 | > 100 | > 100 | > 100 | > 100 | > 100 µM | – | > 100 | > 100 | > 100 | – | –
C#CCOC(=O)C=[N+]=[N-] | > 10 | – | > 10 | > 10 | > 10 | > 10 µM | – | > 10 | – | > 10 | – | –
CCN1CC2=C(OC(N)=C(C#N)C2c2ccc(Cl)cc2)/C(=C/c2ccc(Cl)cc2)C1 (stereo not given) | 37.5 | > 100 | > 100 | > 100 | > 100 | 84.7 µM | > 100 | – | > 100 | > 100 | – | –
OC1CCN2Cc3ccccc3N=C12 (stereo not given) | > 100 | > 100 | > 100 | > 100 | – | > 100 µM | – | > 100 | > 100 | > 100 | – | –
CCOC(=O)c1ccc(N2C(=O)/C(=C/c3ccc(N(CCC#N)CCC#N)cc3)N=C2c2cc([N+](=O)[O-])ccc2Cl)cc1 | – | > 100 | > 100 | – | > 100 | > 100 µM | > 100 | > 100 | > 100 | – | – | –
CC(C)(C)c1ccc(O)c(C(O)c2ccccn2)c1 (stereo not given) | – | > 100 | > 100 | > 100 | – | > 100 µM | > 100 | > 100 | > 100 | > 100 | – | –
Cc1cccc(C)c1NC(=S)N/C=C(\C#N)C(N)=O | – | > 100 | > 100 | > 100 | > 100 | > 100 µM | > 100 | > 100 | > 100 | > 100 | – | –
COC(=O)[C@H](Cc1ccccc1)NC(=O)N(CCN(CCC#N)C(=O)N[C@H](C(=O)OC)C(C)C)c1ccccc1 | > 100 | > 100 | > 100 | – | > 100 | > 100 µM | > 100 | > 100 | > 100 | – | – | –
O=C1c2cccnc2S(=O)(=O)N1c1ccc(Br)cc1 | > 100 | > 100 | > 100 | > 100 | > 100 | > 100 µM | > 100 | > 100 | > 100 | – | – | –
CCOC(=O)c1nc2ccccc2nc1Nc1cc(OC)c(OC)c(OC)c1 | – | > 100 | > 100 | > 100 | > 100 | > 100 µM | > 100 | > 100 | – | > 100 | – | –
COC(=O)C12C(=O)CC3CCC1C32C(=O)OC (stereo not given) | – | > 100 | > 100 | > 100 | > 100 | > 100 µM | > 100 | > 100 | > 100 | > 100 | – | –
CC(C)(C)OC(=O)C1C(=O)NC(=O)CC1C(OCc1ccccc1)C(OCc1ccccc1)C(COCc1ccccc1)OCc1ccccc1 (stereo not given) | > 100 | > 100 | > 100 | > 75 | > 100 | > 100 µM and 73 µM | – | > 100 | > 100 | > 100 | > 100 µM and 15.7 µM | > 100 µM and 37.3 µM
C[C@]12C(=O)OC[C@H](c3ccccc3)N1C(=O)N(Cc1ccccc1)[C@@H]2CO | > 100 | > 100 | > 100 | > 100 | > 100 | > 100 µM | – | > 100 | > 100 | > 100 | – | –
COC1CCC(O)C(CO)O1 (stereo not given) | – | – | > 100 | > 100 | 61.2 | 65.3 µM | 26.9 | > 100 | > 100 | > 100 | – | –
O=C(CN1CCCCC1)c1ccc2[nH]c(=O)oc2c1 | > 100 | > 100 | > 100 | > 100 | > 100 | > 100 µM | – | > 100 | > 100 | > 100 | – | –
CCCCCCCCCCCCCOCCOCCOCCCCC(O)CCCCCCCCCC1=C[C@H](C)OC1=O (stereo not given in full) | – | 52.3 | 48 | 57.6 | 37.6 | – | 16.7 | 71.4 | 22.5 | > 100 | – | –
Cc1ccc(S(=O)(=O)N(CC(O)COc2ccccc2)c2c(F)c(F)c(F)c(F)c2F)cc1 (stereo not given) | 33.2 | 29.8 | 33 | 33 | – | 53.1 µM | – | 37.7 | 71.1 | 30.3 | – | –
